Data from patent publication US20030232101A1, “Topical formulations of resorcinols and cannibinoids and methods of use” (Immugen Pharmaceuticals, Inc., priority 2002, published 2003).
“Also recorded” adds a separate entry of the source. Read-outs that look alike come from different tables or passages of the source.

Tests used:
HIV-1 = assay: HeLa CD4 LTR β-gal HIV-1 attachment assay (Experimental Example 1); format: cell-based; details: for IC50: Human immunodeficiency virus 1, HeLa; for inhibition of HIV attachment/entry: following a 24 h pre-incubation
HIV-1 (96USHIPS7 strain) = assay: HIV attachment assay in PBMCs (cell-associated p24); format: cell-based
Procedure: ELISA kits were purchased from Coulter Electronics. The assay was performed according to the manufacturer's instructions. Control curves were generated in each assay to accurately quantitate the amount of p24 antigen in each sample. For experiments using cell lysates. Fifty thousand (5×10^4) viable cells were lysed in Coulter ELISA buffer and subjected to 1 round of freeze/thawed to liberate trapped p24 and p24 detected per manufacturers instructions. HIV capsid protein (p24) was quantitated spectrophotometrically at 450 nm using a Molecular Devices Vmax plate reader using a standard curve. Final concentrations were calculated from the optical density values using the Molecular Devices Soft Max software package.
The attachment assay with PBMCs was performed as follows. Briefly, 1×10^6 PHA/IL-2 PBMCs were incubated for 0, 2, 4 and 24 hours with IMG compounds and cannabidiol in polypropylene tubes. A pre-titered amount of HIV-1 (96USHIPS7 strain, obtained from the AIDS Research and Reference Reagent Program ) was added in the presence of compound and incubated for 3 h at 37° C. After incubation the cultures were washed 3 times (400×g, 10 min, 4° C.) with media (1:25,000 dilution of input p24), the cell pellets lysed with p24 lysing buffer (Coulter) and p24 content determined by ELISA.
PBMCs pretreated with compounds for 0, 2, 4, and 24 were incubated with cell-free HIV-1 for 3 h and the excess unbound HIV removed. The assessed the amount of HIV bound to the cell was then assessed by measuring cell-associated p24 content of total cell lysates.

[1] = PBMC cell viability in time of addition assay (MTS / Trypan Blue); format: cell-based, Human; details: human; treatment −4 h pre; read-out: TC50
Description: (§1) Human peripheral blood mononuclear cells (PBMCs) from a minimum of 2 donors, that have been blasted with PHA and IL-2, were counted, viability determined by Trypan Blue dye exclusion and mixed in equal ratios. Pooled donors were used to minimize the variability observed between individual donors which results from quantitative and qualitative differences in HIV infection and overall response to the PHA and IL-2 of primary lymphocyte populations. The cells were resuspended at 1×10^6 cells /mL in RPMI 1640 without phenol red supplemented with 15% Fetal Bovine Serum (heat inactivated), 2 mM L-glutamine, 100 U/mL penicillin, 100 μg/mL streptomycin, 10 μg/mL gentamycin and IL-2 (20 U/mL, R&D Systems, Minneapolis, Minn.). Fifty microliters of cells were then distributed to the inner 60 wells of a 96 well round bottom microtiter culture plate in a standard format developed by the Infectious Disease Research department of Southern Research Institute. Each plate contains cell control wells (cells only), virus control wells (cells plus virus), and experimental wells (drug plus cells plus virus). Alternatively, cells were cultured in T25 cm^2 or T75 cm^2 tissue culture flasks at a starting density of 1×10^6 cells per ml. Serially diluted compounds were added to the microtiter plate or tissue culture flask followed by the appropriate pre-titered strain of HIV-1. For virus replication inhibition experiments the HIV-1 strain RoJo was used. This is a low passage presumable subtype B pediatric isolate with a syncytium inducing (SI) phenotype in MT-2 cells isolated by Southern Research Institute personnel. All samples were assayed in triplicate where possible with an accompanying determination of compound toxicity. The final volume per well in the microtiter plates was 200 μL. The final volume in the tissue culture flask varied depending upon experimental design and flask size. Assays were incubated for 6 days in a humidified atmosphere at 37° C., 5% CO^2, after which supernatants were collected, for analysis of RT activity and cell viability by MTS dye reduction. Culture were also examined microscopically, any abnormalities noted, and in the case of tissue culture flasks cell counts and viability determined by Trypan Blue Dye exclusion.
(§2) Time of addition assays were performed with PBMCs in two ways. For both assays, PBMCs were isolated and cultured under the conditions as described above. Time of addition assays were carried out in either a tissue culture flask format (T-75 cm^2) or in microtiter wells. In both cases due to the lack of plastic adherence and heterogeneity of the PBMC population for susceptibility to infection, it was not possible to use complete removal of virus following a timed adsorption to synchronize the infection and limit the assay to a single round of infection. Therefore, serial washing by partial removal of the media was used to reduce the concentration of virus and compound (if required) in the assay. Compound addition in relationship to antiviral activity was either assessed over a short addition interval immediately before or after virus addition or for up to 72 h post infection. For all assays virus replication was assessed at 6 days of culture by determining RT expression in cell-free supernatants. In the tissue culture flask format cells were counted and Trypan Blue Dye exclusion used to monitor compound cytotoxicity. Cell viability in the 96 well microtiter plate format was determined by MTS dye reduction. AZT was used as a positive control.
(§3) At assay termination the assay plates were stained with the soluble tetrazolium-based dye MTS (CellTiter96® Reagent Promega) to determine cell viability and quantify compound toxicity. MTS is metabolized by the mitochondria enzymes of metabolically active cells to a soluble formazan product, allowing the rapid quantitative analysis cell viability and compound cytotoxicity. […] At termination of the assay 20 μL of MTS reagent was added per well and incubated for 4 h at 37° C. […]

[2] = tested on: peripheral blood mononuclear cells (PBMCs); assay: as above; format: cell-based, Human; details: read-out: TC50 (the source's name)
Description: as §1, §2, §3

Cc1c(O)cc(C(C)(C)CCCC(C)C)cc1O [IMG510, 2-Methyl-5-(1,1,5-trimethylhexyl)resorcinol]
IC50 (HIV-1; Experiment 1, pretreat 0 h): > 50 µM
IC50 (HIV-1; Experiment 1, pretreat 4 h): > 50 µM
IC50 (HIV-1; Experiment 1, pretreat 24 h): 0.14 µM
IC50 (HIV-1; Experiment 2, pretreat 0 h): > 50 µM
IC50 (HIV-1; Experiment 2, pretreat 4 h): > 50 µM
IC50 (HIV-1; Experiment 2, pretreat 24 h): 11.5 µM
β-galactosidase production relative to background (cells alone+compounds) (HIV-1; following 24 h exposure): suppressed β-galactosidase production below background
inhibition of HIV attachment/entry (HIV-1): consistent inhibition
Comment: transient suppression lost at lower concentrations (HIV-1; pretreat 4 h): transient suppression of virus replication; also recorded: Transient suppression lost with at lower
Comment: suppression of β-galactosidase activity (HIV-1; pretreat 24 h): Suppression of β-galactosidase activity
% Control (HIV-1 (96USHIPS7 strain); 15 μM, time 0 h): 91.1%
pg p24 (HIV-1 (96USHIPS7 strain); 15 μM, time 0 h): 350 pg
% Control (HIV-1 (96USHIPS7 strain); 15 μM, time 2 h): 85.7%
pg p24 (HIV-1 (96USHIPS7 strain); 15 μM, time 2 h): 329 pg
% Control (HIV-1 (96USHIPS7 strain); 15 μM, time 4 h): 71.4%
pg p24 (HIV-1 (96USHIPS7 strain); 15 μM, time 4 h): 274 pg
% Control (HIV-1 (96USHIPS7 strain); 15 μM, time 24 h): 88.3%
pg p24 (HIV-1 (96USHIPS7 strain); 15 μM, time 24 h): 339 pg
CC50 at 6 days [1]: > 100 µM
CC50 ([2]; treatment 6 h post): > 100 µM
CC50 ([2]; treatment at infection): > 100 µM

CC(C)=CCCC1(C)CCc2c(O)cc(C(C)(C)CCCC(C)C)cc2O1 (centres unmarked) [IMG508, 3,4-Dihydro-2-methyl-2-(4-methyl-3-pentenyl)-7-(1,1,5-trimethylhexyl)-2H-1-benzopyran-5-ol]
IC50 (HIV-1; Experiment 1, pretreat 0 h): 16 µM
IC50 (HIV-1; Experiment 1, pretreat 4 h): 10.8 µM
IC50 (HIV-1; Experiment 1, pretreat 24 h): 7.4 µM
IC50 (HIV-1; Experiment 2, pretreat 0 h): 0.9 µM
IC50 (HIV-1; Experiment 2, pretreat 4 h): 11 µM
IC50 (HIV-1; Experiment 2, pretreat 24 h): 2.6 µM
β-galactosidase production relative to background (cells alone+compounds) (HIV-1; at all times): suppressed β-galactosidase production below background
inhibition of HIV attachment/entry (HIV-1): consistent inhibition
Comment: suppression of β-galactosidase activity (HIV-1; pretreat 0 h): Suppression of β-galactosidase activity,
Comment: transient suppression lost at lower concentrations (HIV-1; pretreat 0 h): Transient suppression lost with at lower
Comment: suppression of β-galactosidase activity (HIV-1; pretreat 4 h): Suppression of β-galactosidase activity
Comment: suppression of β-galactosidase activity (HIV-1; pretreat 24 h): Suppression of β-galactosidase activity,
Comment: transient suppression lost at lower concentrations (HIV-1; pretreat 24 h): Transient suppression lost with at lower
Comments: effect on HIV attachment (HIV-1 (96USHIPS7 strain); 15 μM, pretreatment 0, 2, 4, 24 h): No significant effect
% Control (HIV-1 (96USHIPS7 strain); 15 μM, time 0 h): 81.3%
pg p24 (HIV-1 (96USHIPS7 strain); 15 μM, time 0 h): 312 pg
% Control (HIV-1 (96USHIPS7 strain); 15 μM, time 2 h): 85.4%
pg p24 (HIV-1 (96USHIPS7 strain); 15 μM, time 2 h): 328 pg
% Control (HIV-1 (96USHIPS7 strain); 15 μM, time 4 h): 72.7%
pg p24 (HIV-1 (96USHIPS7 strain); 15 μM, time 4 h): 279 pg
% Control (HIV-1 (96USHIPS7 strain); 15 μM, time 24 h): 111.5%
pg p24 (HIV-1 (96USHIPS7 strain); 15 μM, time 24 h): 428 pg
virus binding relative to control (HIV-1 (96USHIPS7 strain); pretreated for 24 h): return to control levels of virus binding
CC50 at 6 days [1]: > 100 µM
CC50 ([2]; treatment 6 h post): > 100 µM
CC50 ([2]; treatment at infection): > 100 µM
